Data from patent US20100168102A9, “Amide Derivatives as Kinase Inhibitors” (Devgen NV, priority 2005, published 2010).

What was measured:
PKC epsilon = biological target: T1, PKC epsilon (Homo sapiens, UniProt Q02156); experiment: Biochemical assay for PKC epsilon (fluorescence polarization, Protein Kinase C Assay Kit, Red); settings: Table 2, compounds of Formula XIII; read-out: IC50 μM PKCε
T1 construct: purchased Invitrogen P2282
T1 sequence (Q02156 1-737): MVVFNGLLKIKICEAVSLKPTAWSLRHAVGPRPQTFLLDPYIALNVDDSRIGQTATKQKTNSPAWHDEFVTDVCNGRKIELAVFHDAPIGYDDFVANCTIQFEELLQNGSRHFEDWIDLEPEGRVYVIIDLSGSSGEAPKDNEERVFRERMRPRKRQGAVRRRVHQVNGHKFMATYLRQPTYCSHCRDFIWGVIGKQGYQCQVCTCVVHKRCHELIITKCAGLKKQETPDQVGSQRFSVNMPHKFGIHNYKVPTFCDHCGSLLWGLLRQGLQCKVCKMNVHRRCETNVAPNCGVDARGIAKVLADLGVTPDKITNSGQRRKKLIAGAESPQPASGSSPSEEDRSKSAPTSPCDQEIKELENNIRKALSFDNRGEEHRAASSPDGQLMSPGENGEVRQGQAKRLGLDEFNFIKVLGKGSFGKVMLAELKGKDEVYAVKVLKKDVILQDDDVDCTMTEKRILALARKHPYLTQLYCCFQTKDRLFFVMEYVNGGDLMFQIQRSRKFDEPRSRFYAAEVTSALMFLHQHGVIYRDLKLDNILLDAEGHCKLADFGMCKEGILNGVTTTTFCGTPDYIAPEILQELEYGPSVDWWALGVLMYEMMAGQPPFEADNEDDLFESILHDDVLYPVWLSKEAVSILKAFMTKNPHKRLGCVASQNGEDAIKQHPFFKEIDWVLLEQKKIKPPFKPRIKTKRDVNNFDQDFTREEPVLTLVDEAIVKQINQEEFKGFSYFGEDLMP
How it was run: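 Read-out was fluorescence-polarization competition between phosphorylated substrate and a rhodamine PKC tracer for an anti-phosphoserine antibody, added with EDTA stop after an 80 min room-temperature kinase reaction with ATP and protein substrate (Mg2+/Ca2+ buffer). Enzyme (10 ng/ml final) was preincubated with compound for 30 min.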

human ROCKα/ROCKII mix = biological target: T2, human ROCKα/ROCKII mix (Homo sapiens, UniProt O75116); experiment: Biochemical assay for ROCK (fluorescence polarization, ROCK IMAP Kit); settings: Table 2, compounds of Formula XIII
T2 construct: purchased Upstate Biotechnology 14-451
T2 sequence (O75116 11-552 limits assumed): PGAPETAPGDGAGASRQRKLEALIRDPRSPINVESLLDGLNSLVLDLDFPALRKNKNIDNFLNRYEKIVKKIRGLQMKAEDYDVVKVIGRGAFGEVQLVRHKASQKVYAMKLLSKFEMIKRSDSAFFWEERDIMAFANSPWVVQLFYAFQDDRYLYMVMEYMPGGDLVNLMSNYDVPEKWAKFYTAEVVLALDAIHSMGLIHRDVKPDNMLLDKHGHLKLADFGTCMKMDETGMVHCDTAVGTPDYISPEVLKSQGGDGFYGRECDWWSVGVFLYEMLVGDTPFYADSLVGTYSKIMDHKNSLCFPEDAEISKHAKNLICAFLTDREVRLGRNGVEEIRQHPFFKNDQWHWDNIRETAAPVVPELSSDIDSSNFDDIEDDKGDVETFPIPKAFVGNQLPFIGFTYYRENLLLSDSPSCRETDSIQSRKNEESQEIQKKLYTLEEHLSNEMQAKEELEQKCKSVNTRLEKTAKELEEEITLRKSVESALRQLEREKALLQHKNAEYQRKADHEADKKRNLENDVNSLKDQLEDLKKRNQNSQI

Structure (SMILES)	IC50 (PKC epsilon) [µM]	IC50 (human ROCKα/ROCKII mix) [µM]
COc1cccc(C(=O)NCC(N)c2ccc(C(=O)Nc3ccncc3)cc2)c1 (stereo not drawn) [Compound 73, 4-[1-amino-2-(3-methoxy-benzoylamino)-ethyl]-N-pyridin-4-yl-benzamide]	0.5 to 5	0.5 to 5
COc1ccc(C(=O)NCC(N)c2ccc(C(=O)Nc3ccncc3)cc2)cc1 (stereo not drawn) [Compound 74, 4-[1-amino-2-(4-methoxy-benzoylamino)-ethyl]-N-pyridin-4-yl-benzamide]	5 to 50	0.5 to 5
CCCOc1ccc(C(=O)NCC(N)c2ccc(C(=O)Nc3ccncc3)cc2)cc1 (stereo not drawn) [Compound 75, 4-[1-amino-2-(4-propoxy-benzoylamino)-ethyl]-N-pyridin-4-yl-benzamide]	5 to 50	0.5 to 5
NC(CNC(=O)c1ccccc1Oc1ccccc1)c1ccc(C(=O)Nc2ccncc2)cc1 (stereo not drawn) [Compound 76, 4-[1-amino-2-(2-phenoxy-benzoylamino)-ethyl]-N-pyridin-4-yl-benzamide]	0.5 to 5	0.5 to 5
NC(CNC(=O)c1cccc(Oc2ccccc2)c1)c1ccc(C(=O)Nc2ccncc2)cc1 (stereo not drawn) [Compound 77, 4-[1-amino-2-(3-phenoxy-benzoylamino)-ethyl]-N-pyridin-4-yl-benzamide]	5 to 50	0.5 to 5
NC(CNC(=O)c1ccc(Oc2ccccc2)cc1)c1ccc(C(=O)Nc2ccncc2)cc1 (stereo not drawn) [Compound 78, 4-[1-amino-2-(4-phenoxy-benzoylamino)-ethyl]-N-pyridin-4-yl-benzamide]	5 to 50	0.5 to 5
COc1cc(OC)cc(C(=O)NCC(N)c2ccc(C(=O)Nc3ccncc3)cc2)c1 (stereo not drawn) [Compound 79, 4-[1-amino-2-(3,5-dimethoxy-benzoylamino)-ethyl]-N-pyridin-4-yl-benzamide]	0.5 to 5	0.5 to 5
NC(CNC(=O)c1ccc2c(c1)OCO2)c1ccc(C(=O)Nc2ccncc2)cc1 (stereo not drawn) [Compound 80, Benzo[1,3]dioxole-5-carboxylic acid {2-amino-2-[4-(pyridin-4-ylcarbamoyl)-phenyl]-ethyl}amide]	5 to 50	0.05 to 0.5
CCN(CC)c1ccc(C(=O)NCC(N)c2ccc(C(=O)Nc3ccncc3)cc2)cc1 (stereo not drawn) [Compound 81, 4-[1-amino-2-(4-diethylamino-benzoylamino)-ethyl]-N-pyridin-4-yl-benzamide]	5 to 50	0.5 to 5
NC(CNC(=O)c1ccccc1Nc1ccccc1)c1ccc(C(=O)Nc2ccncc2)cc1 (stereo not drawn) [Compound 82, 4-[1-amino-2-(2-phenylamino-benzoylamino)-ethyl]-N-pyridin-4-yl-benzamide]	0.5 to 5	0.5 to 5
CC(=O)Nc1ccc(C(=O)NCC(N)c2ccc(C(=O)Nc3ccncc3)cc2)cc1 (stereo not drawn) [Compound 83, 4-[1-amino-2-(4-acetylamino-benzoylamino)-ethyl]-N-pyridin-4-yl-benzamide]	5 to 50	0.5 to 5
Cc1ccccc1C(=O)NCC(N)c1ccc(C(=O)Nc2ccncc2)cc1 (stereo not drawn) [Compound 84, 4-[1-amino-2-(2-methyl-benzoylamino)-ethyl]-N-pyridin-4-yl-benzamide]	5 to 50	0.5 to 5
Cc1cccc(C(=O)NCC(N)c2ccc(C(=O)Nc3ccncc3)cc2)c1 (stereo not drawn) [Compound 85, 4-[1-amino-2-(3-methyl-benzoylamino)-ethyl]-N-pyridin-4-yl-benzamide]	0.5 to 5	0.5 to 5
Cc1ccc(C(=O)NCC(N)c2ccc(C(=O)Nc3ccncc3)cc2)cc1 (stereo not drawn) [Compound 86, 4-[1-amino-2-(4-methyl-benzoylamino)-ethyl]-N-pyridin-4-yl-benzamide]	5 to 50	0.5 to 5
NC(CNC(=O)c1ccccc1-c1ccccc1)c1ccc(C(=O)Nc2ccncc2)cc1 (stereo not drawn) [Compound 87, Biphenyl-2-carboxylic acid {2-amino-2-[4-(pyridin-4-ylcarbamoyl)-phenyl]-ethyl}-amide]	0.5 to 5	0.5 to 5
NC(CNC(=O)c1ccc(-c2ccccc2)cc1)c1ccc(C(=O)Nc2ccncc2)cc1 (stereo not drawn) [Compound 88, Biphenyl-4-carboxylic acid {2-amino-2-[4-(pyridin-4-ylcarbamoyl)-phenyl]-ethyl}-amide]	5 to 50	0.5 to 5
NC(CNC(=O)c1cccc(Cl)c1)c1ccc(C(=O)Nc2ccncc2)cc1 (stereo not drawn) [Compound 89, 4-[1-amino-2-(3-chloro-benzoylamino)-ethyl]-N-pyridin-4-yl-benzamide]	0.5 to 5	0.5 to 5

Structure (SMILES)	IC50 (PKC epsilon) [µM]	IC50 (human ROCKα/ROCKII mix) [µM]
NC(CNC(=O)c1ccc(Cl)cc1)c1ccc(C(=O)Nc2ccncc2)cc1 (stereo not drawn) [Compound 90, 4-[1-amino-2-(4-chloro-benzoylamino)-ethyl]-N-pyridin-4-yl-benzamide]	5 to 50	0.5 to 5
NC(CNC(=O)c1cccc(Br)c1)c1ccc(C(=O)Nc2ccncc2)cc1 (stereo not drawn) [Compound 91, 4-[1-amino-2-(3-bromo-benzoylamino)-ethyl]-N-pyridin-4-yl-benzamide]	0.5 to 5	0.5 to 5
NC(CNC(=O)c1cccc(F)c1)c1ccc(C(=O)Nc2ccncc2)cc1 (stereo not drawn) [Compound 92, 4-[1-amino-2-(3-fluoro-benzoylamino)-ethyl]-N-pyridin-4-yl-benzamide]	0.5 to 5	0.5 to 5
NC(CNC(=O)c1ccc(F)cc1)c1ccc(C(=O)Nc2ccncc2)cc1 (stereo not drawn) [Compound 93, 4-[1-amino-2-(4-fluoro-benzoylamino)-ethyl]-N-pyridin-4-yl-benzamide]	0.5 to 5	0.5 to 5
N#Cc1cccc(C(=O)NCC(N)c2ccc(C(=O)Nc3ccncc3)cc2)c1 (stereo not drawn) [Compound 94, 4-[1-amino-2-(3-cyano-benzoylamino)-ethyl]-N-pyridin-4-yl-benzamide]	0.5 to 5	0.5 to 5
N#Cc1ccc(C(=O)NCC(N)c2ccc(C(=O)Nc3ccncc3)cc2)cc1 (stereo not drawn) [Compound 95, 4-[1-amino-2-(4-cyano-benzoylamino)-ethyl]-N-pyridin-4-yl-benzamide]	5 to 50	0.5 to 5
CS(=O)(=O)c1cccc(C(=O)NCC(N)c2ccc(C(=O)Nc3ccncc3)cc2)c1 (stereo not drawn) [Compound 96, 4-[1-amino-2-(3-methanesulfonyl-benzoylamino)-ethyl]-N-pyridin-4-yl-benzamide]	0.5 to 5	0.5 to 5
CCNS(=O)(=O)c1cccc(C(=O)NCC(N)c2ccc(C(=O)Nc3ccncc3)cc2)c1 (stereo not drawn) [Compound 97, 4-[1-amino-2-(3-ethylsulfamoyl-benzoylamino)-ethyl]-N-pyridin-4-yl-benzamide]	0.5 to 5	0.5 to 5
CNS(=O)(=O)c1ccc(C(=O)NCC(N)c2ccc(C(=O)Nc3ccncc3)cc2)cc1 (stereo not drawn) [Compound 98, 4-[1-amino-2-(4-methylsulfamoyl-benzoylamino)-ethyl]-N-pyridin-4-yl-benzamide]	5 to 50	0.5 to 5
NC(CNC(=O)c1cccc(S(=O)(=O)Nc2ccccc2)c1)c1ccc(C(=O)Nc2ccncc2)cc1 (stereo not drawn) [Compound 99, 4-[1-amino-2-(3-phenylsulfamoyl-benzoylamino)-ethyl]-N-pyridin-4-yl-benzamide]	0.5 to 5	0.5 to 5
NC(CNC(=O)c1ccc(C(=O)c2ccccc2)cc1)c1ccc(C(=O)Nc2ccncc2)cc1 (stereo not drawn) [Compound 100, 4-[1-amino-2-(4-benzoyl-benzoylamino)-ethyl]-N-pyridin-4-yl-benzamide]	5 to 50	0.5 to 5
NC(CNC(=O)c1cccc(Cn2cccn2)c1)c1ccc(C(=O)Nc2ccncc2)cc1 (stereo not drawn) [Compound 103, 4-{1-amino-2-[(3-pyrazol-1ylmethyl)-benzoylamino]-ethyl}-N-pyridin-4-yl-benzamide]	0.5 to 5	0.5 to 5
NC(CNC(=O)c1ccncc1)c1ccc(C(=O)Nc2ccncc2)cc1 (stereo not drawn) [Compound 104, N-{2-Amino-2-[4-(pyridin-4-ylcarbamoyl)-phenyl]-ethyl}-isonicotinamide]	5 to 50	0.5 to 5
NC(CNC(=O)c1ccccn1)c1ccc(C(=O)Nc2ccncc2)cc1 (stereo not drawn) [Compound 105, Pyridine-2-carboxylic acid {2-amino-2-[4-(pyridin-4-ylcarbamoyl)-phenyl]-ethyl}-amide]	5 to 50	0.5 to 5
NC(CNC(=O)c1cccnc1)c1ccc(C(=O)Nc2ccncc2)cc1 (stereo not drawn) [Compound 106, N-{2-Amino-2-[4-(pyridin-4-ylcarbamoyl)-phenyl]-ethyl}-nicotinamide]	0.5 to 5	0.5 to 5
NC(CNC(=O)c1cnccn1)c1ccc(C(=O)Nc2ccncc2)cc1 (stereo not drawn) [Compound 108, Pyrazine-2-carboxylic acid {2-amino-2-[4-(pyridin-4-ylcarbamoyl)-phenyl]-ethyl}-amide]	5 to 50	0.5 to 5
